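Protocol summary: plate cells (96-well), add compound at 5 concentrations, incubate 48 h, interpolate endpoints linearly. TGI: concentration producing complete growth inhibition.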 The source made the active and inactive calls. No stated cut-off is given here; in the data, active means GI50 below about 0.43 µM; inactive means the rest.
Key:
Assay in all cases: NCI tumour cell line growth inhibition, 48 h
MOLT-4 leukemia = tested on: MOLT-4 leukemia
SR leukemia = tested on: SR leukemia
RPMI-8226 leukemia = tested on: RPMI-8226 leukemia
NCI-H522 lung = tested on: NCI-H522 lung
OVCAR-8 ovarian = tested on: OVCAR-8 ovarian
SW-620 colon = tested on: SW-620 colon
UACC-257 melanoma = tested on: UACC-257 melanoma
OVCAR-3 ovarian = tested on: OVCAR-3 ovarian
SNB-19 CNS = tested on: SNB-19 CNS
786-0 renal = tested on: 786-0 renal
SF-295 CNS = tested on: SF-295 CNS
NCI/ADR-RES ovarian = tested on: NCI/ADR-RES ovarian
OVCAR-4 ovarian = tested on: OVCAR-4 ovarian
MALME-3M melanoma = tested on: MALME-3M melanoma
HCT-15 colon = tested on: HCT-15 colon
LOX IMVI melanoma = tested on: LOX IMVI melanoma
SF-539 CNS = tested on: SF-539 CNS
NCI-H226 lung = tested on: NCI-H226 lung
HS 578T breast = tested on: HS 578T breast
MCF7 breast = tested on: MCF7 breast
SK-OV-3 ovarian = tested on: SK-OV-3 ovarian
EKVX NSCLC = tested on: EKVX NSCLC
DU-145 prostate = tested on: DU-145 prostate
K-562 leukemia = tested on: K-562 leukemia
RXF 393 renal = tested on: RXF 393 renal
SK-MEL-28 melanoma = tested on: SK-MEL-28 melanoma
OVCAR-5 ovarian = tested on: OVCAR-5 ovarian
CCRF-CEM leukemia = tested on: CCRF-CEM leukemia
A549 NSCLC = tested on: A549 NSCLC
ACHN renal = tested on: ACHN renal
SF-268 CNS = tested on: SF-268 CNS
HCC-2998 colon = tested on: HCC-2998 colon
T-47D breast = tested on: T-47D breast
HCT-116 colon = tested on: HCT-116 colon
SK-MEL-5 melanoma = tested on: SK-MEL-5 melanoma
U251 CNS = tested on: U251 CNS
IGROV1 ovarian = tested on: IGROV1 ovarian
SK-MEL-2 melanoma = tested on: SK-MEL-2 melanoma
SN12C renal = tested on: SN12C renal
KM12 colon = tested on: KM12 colon
BT-549 breast = tested on: BT-549 breast
CAKI-1 renal = tested on: CAKI-1 renal
TK-10 renal = tested on: TK-10 renal
NCI-H23 lung = tested on: NCI-H23 lung
HOP-62 NSCLC = tested on: HOP-62 NSCLC
PC-3 prostate = tested on: PC-3 prostate
M14 melanoma = tested on: M14 melanoma
UO-31 renal = tested on: UO-31 renal
MDA-MB-435 = tested on: MDA-MB-435
COLO 205 colon = tested on: COLO 205 colon
MDA-MB-231 breast = tested on: MDA-MB-231 breast

O=c1c2ccccc2c(=O)c2c1c1[nH]c3ccccc3c1c1c(=O)c3ccccc3c(=O)c21
outcome (MOLT-4 leukemia): inactive
outcome (SR leukemia): inactive
outcome (RPMI-8226 leukemia): inactive

COc1cc([C@@H]2c3cc4c(cc3[C@@H](Nc3ccccc3C(=O)c3ccccc3)[C@H]3COC(=O)[C@H]23)OCO4)cc(OC)c1OC
TGI (NCI-H522 lung): 2.07 µM
TGI (OVCAR-8 ovarian): > 38.3 µM
TGI (SW-620 colon): > 81.6 µM
TGI (MOLT-4 leukemia): > 100 µM
TGI (UACC-257 melanoma): > 100 µM
TGI (OVCAR-3 ovarian): > 100 µM
TGI (SNB-19 CNS): > 100 µM
TGI (786-0 renal): > 100 µM
TGI (SF-295 CNS): > 100 µM
TGI (NCI/ADR-RES ovarian): > 100 µM
TGI (OVCAR-4 ovarian): > 100 µM
TGI (MALME-3M melanoma): > 100 µM
TGI (HCT-15 colon): 1.18 µM
TGI (LOX IMVI melanoma): > 100 µM
TGI (SF-539 CNS): 0.638 µM
TGI (NCI-H226 lung): > 100 µM
TGI (HS 578T breast): > 100 µM
TGI (MCF7 breast): > 100 µM
TGI (SK-OV-3 ovarian): > 100 µM
TGI (EKVX NSCLC): > 100 µM
TGI (DU-145 prostate): > 100 µM
TGI (K-562 leukemia): > 100 µM
TGI (RXF 393 renal): > 100 µM
TGI (SK-MEL-28 melanoma): > 100 µM
TGI (OVCAR-5 ovarian): > 100 µM
TGI (CCRF-CEM leukemia): > 100 µM
TGI (A549 NSCLC): > 100 µM
TGI (ACHN renal): > 100 µM
TGI (SF-268 CNS): > 100 µM
TGI (HCC-2998 colon): > 28.7 µM
TGI (T-47D breast): > 100 µM
TGI (HCT-116 colon): > 100 µM
TGI (SK-MEL-5 melanoma): 2.93 µM
TGI (U251 CNS): 0.979 µM
TGI (IGROV1 ovarian): 90.5 µM
TGI (SK-MEL-2 melanoma): > 100 µM
TGI (SN12C renal): > 100 µM
TGI (KM12 colon): 0.653 µM
TGI (BT-549 breast): > 100 µM
TGI (CAKI-1 renal): > 100 µM
TGI (TK-10 renal): > 100 µM
TGI (NCI-H23 lung): > 100 µM
TGI (HOP-62 NSCLC): > 100 µM
TGI (PC-3 prostate): > 78.7 µM
TGI (M14 melanoma): > 53.7 µM
TGI (UO-31 renal): > 100 µM
TGI (MDA-MB-435): 1.26 µM
TGI (COLO 205 colon): 1.42 µM
TGI (MDA-MB-231 breast): > 66.1 µM
